# From patent US20250205256A1 (GH RESEARCH IRELAND LIMITED, priority 2022, published 2025)
# Where “and” joins values, the source holds several entries; their conditions need not be identical. Equal values may be shown once.
# Assays:
# [1] = test system: Escherichia coli strain WP2 uvrA pKM101; assay: Bacterial mutation test, Escherichia coli; assay type: cell-based; details: up to 5000 μg/plate, absence and presence of rat liver S-9
# Procedure: These conditions included treatments at concentrations up to 5000 μg/plate (the maximum recommended concentration according to current regulatory guidelines), in the absence and in the presence of a rat liver metabolic activation system (S-9).
# [2] = Pharmacokinetics after single inhaled dose of 5-MeO-DMT (LC-MS/MS); assay type: in vivo, human
# Procedure: Blood samples were obtained at 1; 2; 4; 7; 10; 15; 20; 30; 45 min and 1; 1.5; 2; 3; 4 hours after administration.
# PK parameters were generated by algebraic analysis of the concentration versus time plots for each individual. The analysis was carried out using the software Phoenix WinNonlin 6.3.
# [3] = test system: patient with postpartum depression (PPD); assay: Clinical trial of inhaled 5-MeO-DMT in postpartum depression: Barkin Index of Maternal Functioning (BIMF); assay type: in vivo, human; details: PPD n=1
# Text: Maternal functioning can, for instance, be assessed using the Barkin Index of Maternal Functioning (BIMF). This index was designed to measure functioning in the year after childbirth. The BIMF is a 20-item self-report measure of functioning. Each item is assigned a score between 0 and 6 so that the maximum total score is 120. The higher the score, the better maternal functioning is rated.
# The BIMF identifies the key functional domains of a mother during the postnatal period as: self-care, infant care, mother-child interaction, psychological wellbeing of the mother, social support, management, and adjustment.
# (§1) The patient completed all planned visit days.
# [4] = test system: patient with postpartum depression (PPD); assay: Clinical trial of inhaled 5-MeO-DMT in postpartum depression: safety and tolerability; assay type: in vivo, human; details: PPD n=1
# Text: as §1
# [5] = test system: patient with postpartum depression (PPD); assay: Clinical trial of inhaled 5-MeO-DMT (IDR, 6 mg then 12 mg) in postpartum depression: MADRS; assay type: in vivo, human; details: for Total MADRS score: baseline 29
# Text: as §1
# [6] = test system: patients with treatment-resistant major depressive disorder (TRD); assay: Phase 1/2 clinical trial of inhaled 5-MeO-DMT in TRD: safety and tolerability
# Procedure: This trial was designed in two parts. Part A was an open-label, single-arm, single-dose Phase 1 trial with two dose levels (12 mg (n=4) and 18 mg (n=4)). […] The primary endpoint of Part B was to assess the effects on the severity of depression, as assessed by the proportion of patients in remission on day seven after dosing, defined as a MADRS total score of less than or equal to 10.
smiles,measurement,setting,value
COc1ccc2[nH]cc(CCN(C)C)c2c1 [5-MeO-DMT],induction of mutation,[1],did not induce mutation
same,detectability in plasma,"[2]; 3 hours after inhalation, whole dose range",no longer detectable
same,pharmacokinetic measurements under uptitration dosing schemes,[2]; compared with single doses,Substantially similar results were obtained
same,accumulation upon repeated administration,[2]; repeat within 1 to 4 hours,No accumulation is observed
same,"BIMF total score improvement, percent","[3]; Day 7, from 92 to 105",14%
same,BIMF item 16 (I worry about how other people judge me (as a mother)) score,"[3]; Day 7, Day 0 score 3",5
same,BIMF item 10 (I trust my own feelings (instincts) when taking care of my baby) score,"[3]; Day 7, Day 0 score 5",6
same,BIMF functional domain Adjustment score,"[3]; Day 7, Day 0 score 5, maximum 12",6
same,BIMF functional domain Self Care score,"[3]; Day 7, Day 0 score 9, maximum 18",13
same,BIMF functional domain Infant Care score,"[3]; Day 7, Day 0 score 12, maximum 12",12
same,BIMF functional domain Mother-Child Interaction score,"[3]; Day 7, Day 0 score 15, maximum 18",17
same,BIMF functional domain Social Support score,"[3]; Day 7, Day 0 score 17, maximum 18",18
same,BIMF functional domain Management score,"[3]; Day 7, Day 0 score 28, maximum 36",33
same,BIMF functional domain Psychological Well-being score,"[3]; Day 7, Day 0 score 44, maximum 60",53
same,BIMF TOTAL Δ (Day 7),[3]; Day 7 vs Day 0,13
same,BIMF functional domain Adjustment % Improvement,[3]; Day 7 vs Day 0,20.00%
same,BIMF functional domain Adjustment Δ (Day 7),[3]; Day 7 vs Day 0,1
same,BIMF functional domain Infant Care % Improvement,[3]; Day 7 vs Day 0,0.00%
same,BIMF functional domain Infant Care Δ (Day 7),[3]; Day 7 vs Day 0,0
same,BIMF functional domain Management % Improvement,[3]; Day 7 vs Day 0,18% and 17.86%
same,BIMF functional domain Management Δ (Day 7),[3]; Day 7 vs Day 0,5
same,BIMF functional domain Mother-Child Interaction % Improvement,[3]; Day 7 vs Day 0,13.33%
same,BIMF functional domain Mother-Child Interaction Δ (Day 7),[3]; Day 7 vs Day 0,2
same,BIMF functional domain Psychological Well-being % Improvement,[3]; Day 7 vs Day 0,20.45%
same,BIMF functional domain Psychological Well-being Δ (Day 7),[3]; Day 7 vs Day 0,9
same,BIMF functional domain Self Care % Improvement,[3]; Day 7 vs Day 0,44% and 44.44%
same,BIMF functional domain Self Care Δ (Day 7),[3]; Day 7 vs Day 0,4
same,BIMF functional domain Social Support % Improvement,[3]; Day 7 vs Day 0,5.88%
same,BIMF functional domain Social Support Δ (Day 7),[3]; Day 7 vs Day 0,1
same,BIMF item 1 (I am a good mother) Δ (Day 7),[3]; Day 7 vs Day 0,0
same,BIMF item 2 (I feel rested) Δ (Day 7),[3]; Day 7 vs Day 0,2
same,BIMF item 3 (comfortable with the way I've chosen to feed my baby) Δ (Day 7),[3]; Day 7 vs Day 0,0
same,BIMF item 4 (My baby and I understand each other) Δ (Day 7),[3]; Day 7 vs Day 0,0
same,BIMF item 5 (able to relax and enjoy time with my baby) Δ (Day 7),[3]; Day 7 vs Day 0,1
same,BIMF item 6 (people I can trust to care for my baby when I need a break) Δ (Day 7),[3]; Day 7 vs Day 0,0
same,BIMF item 8 (getting enough adult interaction) Δ (Day 7),[3]; Day 7 vs Day 0,0
same,BIMF item 9 (getting enough encouragement from other people) Δ (Day 7),[3]; Day 7 vs Day 0,1
same,BIMF item 10 (I trust my own feelings (instincts) when taking care of my baby) Δ (Day 7),[3]; Day 7 vs Day 0,1
same,BIMF item 11 (a little time each week to do something for myself) Δ (Day 7),[3]; Day 7 vs Day 0,1
same,BIMF item 12 (taking good care of my baby's physical needs) Δ (Day 7),[3]; Day 7 vs Day 0,0
same,BIMF item 13 (taking good care of my physical needs) Δ (Day 7),[3]; Day 7 vs Day 0,1
same,BIMF item 14 (good decisions about my baby's health and well being) Δ (Day 7),[3]; Day 7 vs Day 0,0
same,BIMF item 15 (My baby and I are getting into a routine) Δ (Day 7),[3]; Day 7 vs Day 0,1
same,BIMF item 16 (I worry about how other people judge me (as a mother)) Δ (Day 7),[3]; Day 7 vs Day 0,2
same,BIMF item 17 (able to take care of my baby and my other responsibilities) Δ (Day 7),[3]; Day 7 vs Day 0,0
same,BIMF item 18 (Anxiety or worry often interferes with my mothering ability) Δ (Day 7),[3]; Day 7 vs Day 0,3
same,BIMF item 19 (getting better at taking care of my baby) Δ (Day 7),[3]; Day 7 vs Day 0,1
same,BIMF item 20 (satisfied with the job I am doing as a new mother) Δ (Day 7),[3]; Day 7 vs Day 0,−1
same,"reported adverse events (cramping left abdominal pain and headache, Day 0)",[4],"mild, short-lasting and resolved spontaneously"
same,tolerability of inhalation procedure,[4],well tolerated with no inhalation-related adverse events
same,"ECG, safety laboratory analyses, CADSS","[4]; ECG 3 hours, laboratory 7 days, CADSS 3 hours, 1 day and 7 days",unremarkable
same,changes in vital parameters,[4]; shortly after administration,"temporary, clinically non-relevant increase in heart rate and blood pressure"
same,MADRS response (at least 50% improvement) and MADRS remission (total score ≤10) criteria,[5]; PPD n=1,fulfilled standard criteria
same,time to clinical response after administration,[5]; PPD n=1,≤ 2 h
same,time to clinical remission after administration,"[5]; PPD n=1, IDR",≤ 2 h
same,Total MADRS improvement,"[5]; PPD n=1, 2 hr vs baseline",24
same,Total MADRS score,"[5]; PPD n=1, 2 hr",5
same,MADRS Lassitude score,"[5]; PPD n=1, Day 1, baseline 3",0
same,Total MADRS score,"[5]; PPD n=1, Day 1",0
same,Total MADRS improvement,"[5]; PPD n=1, Day 1 vs baseline",29
same,Total MADRS score,"[5]; PPD n=1, Day 7",1
same,Total MADRS improvement,"[5]; PPD n=1, Day 7 vs baseline",28
same,durability of clinical response,"[5]; PPD n=1, single treatment day",sustained over the 7-day follow-up period
same,"changes in safety laboratory analyses, vital signs, psychiatric safety assessments or measures of cognitive function",[6]; Part A and Part B,No clinically significant changes
same,severity and outcome of ADRs,"[6]; Part A, 12 mg and 18 mg groups",mild and resolved spontaneously
same,patients experiencing at least one ADR,"[6]; Part A, 12 mg single dose, n=4",3 of 4
same,patients experiencing at least one ADR,"[6]; Part A, 18 mg single dose, n=4",3 of 4
same,SAEs,"[6]; Part B, IDR",No SAEs were reported
same,outcome of ADRs,"[6]; Part B, IDR",All ADRs resolved spontaneously
same,patients experiencing at least one ADR,"[6]; Part B, IDR, 7 of 8 patients",87.5%
